Columns and labels:
COX-1 = target: T1, COX-1 (Ovis aries, UniProt P05979); experiment: COX-1 fluorometric inhibitor screening kit (BioVision); type: biochemical
T1 construct: purchased
T1 sequence (P05979 25-600): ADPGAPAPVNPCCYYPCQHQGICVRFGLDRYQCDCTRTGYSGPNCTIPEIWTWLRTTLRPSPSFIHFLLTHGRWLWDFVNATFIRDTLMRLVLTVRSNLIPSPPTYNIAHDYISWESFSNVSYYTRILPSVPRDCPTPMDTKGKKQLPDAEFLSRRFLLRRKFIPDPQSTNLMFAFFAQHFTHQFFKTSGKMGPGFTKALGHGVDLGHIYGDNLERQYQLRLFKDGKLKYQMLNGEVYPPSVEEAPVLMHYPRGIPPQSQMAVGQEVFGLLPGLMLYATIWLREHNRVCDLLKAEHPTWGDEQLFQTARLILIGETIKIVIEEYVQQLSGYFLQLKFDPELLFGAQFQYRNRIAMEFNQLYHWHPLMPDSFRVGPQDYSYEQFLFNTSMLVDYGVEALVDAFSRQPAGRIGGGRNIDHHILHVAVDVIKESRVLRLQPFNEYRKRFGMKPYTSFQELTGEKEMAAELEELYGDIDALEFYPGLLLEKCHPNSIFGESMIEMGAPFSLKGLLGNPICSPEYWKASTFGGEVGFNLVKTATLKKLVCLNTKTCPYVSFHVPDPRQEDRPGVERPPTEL
Description: (§1) To conduct the inhibition assay, the kit components were prepared as follows: The COX-1/COX-2 enzyme solutions were created by reconstituting the lyophilized powder with 110 μL of ddH2O. A diluted COX cofactor was formed by combining a COX assay buffer (398 μL) and a COX cofactor (2 μL). The arachidonic acid/NaOH solution was diluted with 5 μL of arachidonic acid, 5 μL of NaOH, and 90 μL of ddH2O. These solutions were combined to generate the reaction mixture (80 μL) for each well, consisting of the COX assay buffer (76 μL), the COX probe (1 μL), the diluted COX cofactor (2 μL), and the COX-1/COX-2 enzyme solution (1 μL). Test compounds (10 μL) were added, followed by incubation for 5–10 min at 25 °C. To […] the reaction, 10 μL of diluted arachidonic acid/NaOH solution was added. […] The assay was performed in quadruplicate with a blank and control, testing all inhibitor concentrations. The mean ± standard deviation (SD) of the percentage inhibition results were calculated, and IC50 values were determined using GraphPad PRISM software (version 5.0) by plotting the percentage inhibition against the log concentration. Additionally, the selectivity index (SI) was calculated by dividing IC50(COX-1) by IC50(COX-2).

COX-2 = target: T2, COX-2 (Homo sapiens, UniProt P35354); experiment: COX-2 fluorometric inhibitor screening kit (BioVision); type: biochemical
T2 construct: purchased BioVision
T2 sequence (P35354 18-604): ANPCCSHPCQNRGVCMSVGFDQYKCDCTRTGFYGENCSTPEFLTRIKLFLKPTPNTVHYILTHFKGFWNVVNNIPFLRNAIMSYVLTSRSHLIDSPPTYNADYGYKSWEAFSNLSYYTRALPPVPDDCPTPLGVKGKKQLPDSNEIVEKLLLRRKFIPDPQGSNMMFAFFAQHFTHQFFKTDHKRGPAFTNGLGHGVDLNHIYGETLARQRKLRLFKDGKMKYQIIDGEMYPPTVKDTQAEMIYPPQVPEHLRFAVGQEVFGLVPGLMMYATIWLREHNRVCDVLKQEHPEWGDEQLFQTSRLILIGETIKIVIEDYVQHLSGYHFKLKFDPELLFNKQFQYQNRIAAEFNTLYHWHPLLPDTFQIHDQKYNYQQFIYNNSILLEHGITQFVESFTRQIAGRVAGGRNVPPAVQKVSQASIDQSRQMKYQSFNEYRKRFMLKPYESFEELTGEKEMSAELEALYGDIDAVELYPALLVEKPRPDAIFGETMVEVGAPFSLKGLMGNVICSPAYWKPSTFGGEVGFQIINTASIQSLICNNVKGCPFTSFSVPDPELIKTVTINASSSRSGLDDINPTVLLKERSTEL
Description: as §1

[1] = 1 μM compound, mean ± SD, quadruplicate
[2] = 10 μM compound, mean ± SD, quadruplicate

Row | SMILES | COX-1% Inhibition 1 μM (COX-1; [1]) [%] | COX-1% Inhibition 10 μM (COX-1; [2]) [%] | experimental activity on COX-1 (pIC50) (COX-1; BioVision's kit protocol) | IC50 (COX-1; fluorometric kit) [nM] | COX-2% Inhibition 1 μM (COX-2; [1]) [%] | COX-2% Inhibition 10 μM (COX-2; [2]) [%] | experimental activity on COX-2 (pIC50) (COX-2; BioVision's kit protocol) | COX subtype selectivity (COX-2; COX-1 vs COX-2, classification in conclusions) | IC50 (COX-2; fluorometric kit) [nM] | inhibition at 1 µM (COX-2; read-out: COX-2% Inhibition 1 μM) [%] | inhibition at 10 µM (COX-2; read-out: COX-2% Inhibition 10 μM) [%]
1 | CCOC(=O)c1cc(-c2c(OC)cccc2OC)n(CC(=O)O)c1C [Compound 4g] | 84.517 ± 2.036 | 92.366 ± 2.731 | 6.93 | 117 ± 5 | 83.033 ± 1.878 | 90.967 ± 2.022 | 6.7258 | nonselective inhibitors | 188 ± 8 | – | –
2 | CS(=O)(=O)Nc1ccc([N+](=O)[O-])cc1Oc1ccccc1 [nimesulide, reference compound] | – | – | – | – | – | – | – | – | – | 89.6 ± 1.05 | 97.8 ± 1.21

Reference: publication PMC10753557, “Design and Evaluation of Synthesized Pyrrole Derivatives as Dual COX-1 and COX-2 Inhibitors Using FB-QSAR Approach” (ACS Omega, 2023)
